# In ChEMBL document CHEMBL3885881, “DrugMatrix”:
# Species on record: Rattus norvegicus
# Experiment: DrugMatrix - Regimen: Daily Repeat
# Format: toxicity, organism-based, Sprague-Dawley
# Design: regimen Daily Repeat, gender Male, age 6-8 weeks
# Conditions: in vivo, iv, vehicle 100 % SALINE; for ABSOLUTE BASOPHIL / ABSOLUTE EOSINOPHIL / ABSOLUTE LYMPHOCYTE / ABSOLUTE MONOCYTE / ABSOLUTE SEGMENTED NEUTROPHIL / BASOPHIL / EOSINOPHIL / ERYTHROCYTE COUNT / HEMATOCRIT / HEMOGLOBIN / LEUKOCYTE COUNT / LYMPHOCYTE / MEAN CORPUSCULAR HEMOGLOBIN / MEAN CORPUSCULAR HEMOGLOBIN CONCENTRATION / MEAN CORPUSCULAR VOLUME / MONOCYTE / NEUTROPHIL / NUCLEATED RED BLOOD CELLS / PLATELET COUNT: tissue Blood; for ALANINE AMINOTRANSFERASE / ALBUMIN / ALKALINE PHOSPHATASE / ASPARTATE AMINOTRANSFERASE / BLOOD UREA NITROGEN / CARBON DIOXIDE / CHLORIDE / CHOLESTEROL / CREATINE PHOSPHOKINASE / CREATININE / GLUCOSE / LACTATE DEHYDROGENASE / LIPASE / PHOSPHORUS / POTASSIUM / SODIUM / TOTAL BILIRUBIN / TOTAL PROTEIN / URIC ACID: tissue Plasma
# [1] = 0.01 mg/kg, 72 h, dose level Low, time 3 day
# [2] = 0.01 mg/kg, 120 h, dose level Low, time 5 day
# [3] = 15 mg/kg, 72 h, dose level High, time 3 day
structure (smiles),measurement,setting,value
CC(C)NCC(O)c1ccc(O)c(O)c1 (centres undefined) [ISOPROTERENOL],ABSOLUTE BASOPHIL,[1],0 CELLS/uL
same,ABSOLUTE EOSINOPHIL,[1],134.67 CELLS/uL
same,ABSOLUTE LYMPHOCYTE,[1],13411.33 CELLS/uL
same,ABSOLUTE MONOCYTE,[1],299.67 CELLS/uL
same,ABSOLUTE SEGMENTED NEUTROPHIL,[1],1854.33 CELLS/uL
same,BASOPHIL,[1],0%
same,EOSINOPHIL,[1],0.67%
same,ERYTHROCYTE COUNT,[1],5.6 x10E6/uL
same,HEMATOCRIT,[1],34.43%
same,HEMOGLOBIN,[1],12.9 G/DL
same,LEUKOCYTE COUNT,[1],15.7 x10E3/uL
same,LYMPHOCYTE,[1],85.33%
same,MEAN CORPUSCULAR HEMOGLOBIN,[1],23.03 pg
same,MEAN CORPUSCULAR HEMOGLOBIN CONCENTRATION,[1],37.47 G/DL
same,MEAN CORPUSCULAR VOLUME,[1],61.43 fL
same,MONOCYTE,[1],2%
same,NEUTROPHIL,[1],12%
same,NUCLEATED RED BLOOD CELLS,[1],0 /100WBC
same,PLATELET COUNT,[1],1265.33 x10E3/uL
same,ALANINE AMINOTRANSFERASE,[1],39.67 u/L
same,ALBUMIN,[1],4.4 G/DL
same,ALKALINE PHOSPHATASE,[1],368 u/L
same,ASPARTATE AMINOTRANSFERASE,[1],75 u/L
same,BLOOD UREA NITROGEN,[1],14.33 mg/dL
same,CARBON DIOXIDE,[1],25 mmol/L
same,CHLORIDE,[1],104 MEQ/L
same,CHOLESTEROL,[1],69.67 mg/dL
same,CREATINE PHOSPHOKINASE,[1],196.33 u/L
same,CREATININE,[1],0.24 mg/dL
same,GLUCOSE,[1],149.67 mg/dL
same,LACTATE DEHYDROGENASE,[1],289 u/L
same,LIPASE,[1],9.67 u/L
same,PHOSPHORUS,[1],13.47 mg/dL
same,POTASSIUM,[1],6.71 MEQ/L
same,SODIUM,[1],146.07 MEQ/L
same,TOTAL BILIRUBIN,[1],0.2 mg/dL
same,TOTAL PROTEIN,[1],5.97 G/DL
same,URIC ACID,[1],2.17 mg/dL
same,ABSOLUTE BASOPHIL,[2],0 CELLS/uL
same,ABSOLUTE EOSINOPHIL,[2],0 CELLS/uL
same,ABSOLUTE LYMPHOCYTE,[2],15742 CELLS/uL
same,ABSOLUTE MONOCYTE,[2],224 CELLS/uL
same,ABSOLUTE SEGMENTED NEUTROPHIL,[2],800.67 CELLS/uL
same,BASOPHIL,[2],0%
same,EOSINOPHIL,[2],0%
same,ERYTHROCYTE COUNT,[2],5.33 x10E6/uL
same,HEMATOCRIT,[2],32.33%
same,HEMOGLOBIN,[2],12.57 G/DL
same,LEUKOCYTE COUNT,[2],16.77 x10E3/uL
same,LYMPHOCYTE,[2],94%
same,MEAN CORPUSCULAR HEMOGLOBIN,[2],23.6 pg
same,MEAN CORPUSCULAR HEMOGLOBIN CONCENTRATION,[2],38.9 G/DL
same,MEAN CORPUSCULAR VOLUME,[2],60.67 fL
same,MONOCYTE,[2],1.33%
same,NEUTROPHIL,[2],4.67%
same,NUCLEATED RED BLOOD CELLS,[2],0 /100WBC
same,PLATELET COUNT,[2],1122.67 x10E3/uL
same,ALANINE AMINOTRANSFERASE,[2],81 u/L
same,ALBUMIN,[2],3.6 G/DL
same,ALKALINE PHOSPHATASE,[2],310 u/L
same,ASPARTATE AMINOTRANSFERASE,[2],65 u/L
same,BLOOD UREA NITROGEN,[2],16.67 mg/dL
same,CARBON DIOXIDE,[2],24 mmol/L
same,CHLORIDE,[2],107.5 MEQ/L
same,CHOLESTEROL,[2],61.33 mg/dL
same,CREATINE PHOSPHOKINASE,[2],282.67 u/L
same,CREATININE,[2],0.3 mg/dL
same,GLUCOSE,[2],161.67 mg/dL
same,LACTATE DEHYDROGENASE,[2],140 u/L
same,LIPASE,[2],11 u/L
same,PHOSPHORUS,[2],11.23 mg/dL
same,POTASSIUM,[2],6.08 MEQ/L
same,SODIUM,[2],146.4 MEQ/L
same,TOTAL BILIRUBIN,[2],0.13 mg/dL
same,TOTAL PROTEIN,[2],5.73 G/DL
same,URIC ACID,[2],1.3 mg/dL
same,ABSOLUTE BASOPHIL,[3],0 CELLS/uL
same,ABSOLUTE EOSINOPHIL,[3],47.67 CELLS/uL
same,ABSOLUTE LYMPHOCYTE,[3],15188.67 CELLS/uL
same,ABSOLUTE MONOCYTE,[3],404 CELLS/uL
same,ABSOLUTE SEGMENTED NEUTROPHIL,[3],1159.67 CELLS/uL
same,BASOPHIL,[3],0%
same,EOSINOPHIL,[3],0.33%
same,ERYTHROCYTE COUNT,[3],5.66 x10E6/uL
same,HEMATOCRIT,[3],36.93%
same,HEMOGLOBIN,[3],13.6 G/DL
same,LEUKOCYTE COUNT,[3],16.8 x10E3/uL
same,LYMPHOCYTE,[3],90.67%
same,MEAN CORPUSCULAR HEMOGLOBIN,[3],24 pg
same,MEAN CORPUSCULAR HEMOGLOBIN CONCENTRATION,[3],36.83 G/DL
same,MEAN CORPUSCULAR VOLUME,[3],65.2 fL
same,MONOCYTE,[3],2.33%
same,NEUTROPHIL,[3],6.67%
same,NUCLEATED RED BLOOD CELLS,[3],0 /100WBC
same,PLATELET COUNT,[3],1372 x10E3/uL
same,ALANINE AMINOTRANSFERASE,[3],39 u/L
same,ALBUMIN,[3],4.1 G/DL
same,ALKALINE PHOSPHATASE,[3],370.67 u/L
same,ASPARTATE AMINOTRANSFERASE,[3],73.67 u/L
same,BLOOD UREA NITROGEN,[3],19.33 mg/dL
same,CARBON DIOXIDE,[3],24.67 mmol/L
same,CHLORIDE,[3],106 MEQ/L
same,CHOLESTEROL,[3],80.33 mg/dL
same,CREATINE PHOSPHOKINASE,[3],282.67 u/L
same,CREATININE,[3],0.17 mg/dL
same,GLUCOSE,[3],151.33 mg/dL
same,LACTATE DEHYDROGENASE,[3],128.33 u/L
same,LIPASE,[3],9 u/L
same,PHOSPHORUS,[3],10.87 mg/dL
